Assay results from patent US20110195049A1, “COMPOSITIONS AND METHODS FOR TREATING MULTIPLE SCLEROSIS” (BIOVISTA, INC., priority 2008, published 2011).
Counter-ions that a name gives are not always drawn.

Experiments:
NMDA receptor = conditions: dose producing the anti-NMDA effect; cited from earlier work
[1] = disturbance of coordination of movement and a sedative effect; cited from earlier work
[2] = test system: acute EAE murine model of MS; test: Acute EAE murine model (MOG-induced), clinical score over 35 days; type: in vivo, female C57BL/6J mice

Row | SMILES | ED50 of anti-NMDA effect (NMDA receptor) [mg/kg] | adverse effects at doses producing the anti-NMDA effect [1] | activity (average clinical score) compared to the vehicle-only treatment group (1F) ([2]; 1.0 mg/kg IP once daily from study day 0, 35-day study, n = 10) | activity (average clinical score) compared to the vehicle-only treatment group (1F) ([2]; 10.0 mg/kg IP once daily (group 5F), at the end of the study) | activity (average clinical score) compared to the vehicle-only treatment group (1F) ([2]; 10.0 mg/kg IP once daily (group 5F), intermediate time points, days 26 and 27)
1 | NC(CCCP(=O)(O)O)C(=O)O (centres unmarked) [AP5, 2-amino-5-phosphonovaleric acid] | 190 | neurotoxic effects |  |  | 
2 | Cc1ccc2c(c1)c1c(n2CCc2ccc(C)nc2)CCN(C)C1 [Dimebon, 2,8-dimethyl-5-(2-(6-methyl-3-pyridyl)ethyl)-2,3,4,5-tetrahydro-1H-pyrido[4,3-b]indole dihydrochloride] |  |  | statistically significant | not statistically significant | statistically significant
